≈ marks a conversion by molar mass, not a printed value.
Key:
Format in all cases: functional
[1] = test system: Pseudomonas aeruginosa; experiment: Antibacterial activity against Pseudomonas aeruginosa ATCC 13525 after 24 hrs by MTT assay; conditions: ATCC 13525, 24 h
[2] = test system: Staphylococcus aureus; experiment: Antibacterial activity against Staphylococcus aureus ATCC 6538 after 24 hrs by MTT assay; conditions: ATCC 6538, 24 h
[3] = test system: Escherichia coli; experiment: Antibacterial activity against Escherichia coli ATCC 35218 after 24 hrs by MTT assay; conditions: ATCC 35218, 24 h
[4] = test system: Bacillus subtilis; experiment: Antibacterial activity against Bacillus subtilis ATCC 6633 after 24 hrs by MTT assay; conditions: ATCC 6633, 24 h
[5] = test system: Aspergillus niger; experiment: Antifungal activity against Aspergillus niger ATCC 16404 after 24 hrs by MTT assay; conditions: ATCC 16404, 24 h
[6] = test system: Trichophyton rubrum; experiment: Antifungal activity against Trichophyton rubrum ATCC 10218 after 24 hrs by MTT assay; conditions: ATCC 10218, 24 h

Row | Structure (SMILES) | MIC [1] [µg/mL] | MIC [2] [µg/mL] | MIC [3] [µg/mL] | MIC [4] [µg/mL] | MIC [5] [µg/mL] | MIC [6] [µg/mL]
1 | CCN(CC)C(=O)Nc1ccc(Cl)cc1Cl | > 50 | > 50 | > 50 | > 50 | 45.2 (≈ 173 µM) | > 50
2 | O=C(Nc1ccc(F)cc1F)N1CCOCC1 | > 50 | > 50 | 4.2 (≈ 17.3 µM) | > 50 | > 50 | 18.2 (≈ 75.1 µM)
3 | O=C(Nc1ccc(Cl)cc1Cl)N1CCOCC1 | 50 (≈ 182 µM) | > 50 | 12.5 (≈ 45.4 µM) | > 50 | > 50 | > 50
4 | O=C(Nc1cc(Cl)cc(Cl)c1)N1CCOCC1 | 8.8 (≈ 32 µM) | > 50 | 12.5 (≈ 45.4 µM) | 6.2 (≈ 22.5 µM) | > 50 | 12.5 (≈ 45.4 µM)
5 | O=C(N1CCOCC1)N1CCCc2ccccc21 | 8.2 (≈ 33.3 µM) | > 50 | > 50 | > 50 | 12.5 (≈ 50.7 µM) | 12.5 (≈ 50.7 µM)
6 | O=C(Nc1cccc2cccnc12)N1CCOCC1 | 25.3 (≈ 98.3 µM) | > 50 | > 50 | 38.7 (≈ 150 µM) | > 50 | 40.8 (≈ 159 µM)
7 | CCN(CC)C(=O)Nc1ccc(F)cc1 | 12.5 (≈ 59.5 µM) | > 50 | 25 (≈ 119 µM) | 6.2 (≈ 29.5 µM) | > 50 | 32.6 (≈ 155 µM)
8 | CCN(CC)C(=O)Nc1ccccc1F | > 50 | > 50 | 25 (≈ 119 µM) | 12.5 (≈ 59.5 µM) | > 50 | > 50
9 | CCN(CC)C(=O)Nc1ccc(F)cc1F | > 50 | > 50 | 25 (≈ 110 µM) | 12.5 (≈ 54.8 µM) | > 50 | > 50
10 | CCN(CC)C(=O)Nc1ccc(C(C)C)cc1 | 12.5 (≈ 53.3 µM) | > 50 | > 50 | > 50 | > 50 | > 50
11 | CCN(CC)C(=O)Nc1ccc(Br)cc1 | > 50 | > 50 | 25 (≈ 92.2 µM) | > 50 | 23 (≈ 84.8 µM) | > 50
12 | NC[C@H]1O[C@H](O[C@H]2[C@H](O)[C@@H](O[C@H]3O[C@H](CO)[C@@H](O)[C@H](N)[C@H]3O)[C@H](N)C[C@@H]2N)[C@H](O)[C@@H](O)[C@@H]1O [KANAMYCIN] | 3.1 (≈ 6.4 µM) | 1 (≈ 2.06 µM) | 3.1 (≈ 6.4 µM) | 0.4 (≈ 0.826 µM) | – | –
13 | CC(=O)N1CCN(c2ccc(OCC3COC(Cn4ccnc4)(c4ccc(Cl)cc4Cl)O3)cc2)CC1 (stereo not given) [KETOCONAZOLE] | – | – | – | – | 7.8 (≈ 14.7 µM) | 3.9 (≈ 7.34 µM)
14 | CC1(C)S[C@@H]2[C@H](NC(=O)Cc3ccccc3)C(=O)N2[C@H]1C(=O)O [PENICILLIN G] | 6.2 (≈ 18.5 µM) | 2 (≈ 5.98 µM) | > 50 | 1.6 (≈ 4.78 µM) | – | –

Second part, the compound after the results:

Row | MIC [1] [µg/mL] | MIC [2] [µg/mL] | MIC [3] [µg/mL] | MIC [4] [µg/mL] | MIC [5] [µg/mL] | MIC [6] [µg/mL] | Structure (SMILES)
15 | 8 (≈ 32.2 µM) | > 50 | 7.2 (≈ 29 µM) | > 50 | > 50 | 20.7 (≈ 83.4 µM) | CC(C)c1ccc(NC(=O)N2CCOCC2)cc1
16 | 6.2 (≈ 27.6 µM) | > 50 | 1.6 (≈ 7.14 µM) | > 50 | > 50 | 3.5 (≈ 15.6 µM) | O=C(Nc1ccc(F)cc1)N1CCOCC1
17 | 12.5 (≈ 55.7 µM) | > 50 | 2.1 (≈ 9.37 µM) | 1.6 (≈ 7.14 µM) | > 50 | 3.1 (≈ 13.8 µM) | O=C(Nc1ccccc1F)N1CCOCC1
18 | 37.1 (≈ 130 µM) | > 50 | 3.1 (≈ 10.9 µM) | > 50 | > 50 | > 50 | O=C(Nc1ccc(Br)cc1)N1CCOCC1
19 | 31.5 (≈ 107 µM) | > 50 | > 50 | 40.2 (≈ 137 µM) | > 50 | 31.2 (≈ 106 µM) | O=C(Nc1ccc2c(c1)Cc1ccccc1-2)N1CCOCC1
20 | 22 (≈ 107 µM) | > 50 | 6.2 (≈ 30.1 µM) | > 50 | > 50 | > 50 | O=C(Nc1ccccc1)N1CCOCC1
21 | > 50 | > 50 | 7.2 (≈ 32.7 µM) | > 50 | > 50 | 38.4 (≈ 174 µM) | Cc1ccc(NC(=O)N2CCOCC2)cc1
22 | > 50 | > 50 | 3.1 (≈ 12.9 µM) | 3.1 (≈ 12.9 µM) | > 50 | > 50 | O=C(Nc1ccccc1Cl)N1CCOCC1
23 | 12.5 (≈ 52.9 µM) | > 50 | 7.5 (≈ 31.7 µM) | > 50 | > 50 | 12.5 (≈ 52.9 µM) | COc1ccc(NC(=O)N2CCOCC2)cc1

From ChEMBL document CHEMBL1177855, “Synthesis of some N-alkyl substituted urea derivatives as antibacterial and antifungal agents” (2010)
